Experimental data taken from ChEMBL document CHEMBL1201862, “PubChem BioAssay data set” (2004).
Active and inactive are the calls of the source.

Columns and labels:
[1] = biological target: T1, Alkaline phosphatase, tissue-nonspecific isozyme (Homo sapiens, UniProt P05186); experiment: TNAP enzyme inhibition by screening hits, dose response, selectivity assay for mouse IAP inhibitor project, biochemical, human TNAP, uHTS hits (AID 488906); format: functional
T1 sequence (P05186 whole entry): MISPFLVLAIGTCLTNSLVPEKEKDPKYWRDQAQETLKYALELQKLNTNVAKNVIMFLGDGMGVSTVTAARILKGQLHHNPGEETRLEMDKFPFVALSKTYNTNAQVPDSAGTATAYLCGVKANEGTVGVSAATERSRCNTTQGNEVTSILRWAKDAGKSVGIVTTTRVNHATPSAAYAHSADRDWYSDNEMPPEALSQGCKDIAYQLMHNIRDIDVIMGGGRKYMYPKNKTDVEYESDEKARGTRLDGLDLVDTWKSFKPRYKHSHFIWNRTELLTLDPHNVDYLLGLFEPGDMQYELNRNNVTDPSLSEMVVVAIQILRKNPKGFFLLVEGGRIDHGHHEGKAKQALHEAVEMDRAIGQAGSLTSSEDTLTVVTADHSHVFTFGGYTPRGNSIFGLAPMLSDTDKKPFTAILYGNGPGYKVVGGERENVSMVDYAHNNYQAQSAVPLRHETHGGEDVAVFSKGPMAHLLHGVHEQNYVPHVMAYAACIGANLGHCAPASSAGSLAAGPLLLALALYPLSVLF

[2] = biological target: Intestinal-type alkaline phosphatase (Homo sapiens, UniProt P09923); experiment: activation of human intestinal alkaline phosphatase – biochemical, dose response (AID 488873); format: functional
[3] = biological target: T2, Intestinal-type alkaline phosphatase (Mus musculus, UniProt P24822); experiment: PubChem AID 488785; format: functional
[4] = biological target: T2, Intestinal-type alkaline phosphatase; experiment: mouse intestinal alkaline phosphatase activators, dose response, biochemical, luminescence, uHTS hits (AID 488783); format: functional
Large T antigen = Large T antigen (Simian virus 40, UniProt P03070); format: functional, Betapolyomavirus macacae;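 further: Confirmatory-stage PubChem screen for compounds that inhibit SV40 T antigen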
[5] = biological target: T1, Alkaline phosphatase, tissue-nonspecific isozyme; experiment: TNAP enzyme activators, dose response, selectivity assay for mouse IAP activator project, biochemical, TNAP isozyme, mouse IAP uHTS hits (AID 488880); format: functional
[6] = biological target: T3, Histone-lysine N-methyltransferase NSD2 (Homo sapiens, UniProt O96028); format: biochemical
T3 sequence (O96028 whole entry): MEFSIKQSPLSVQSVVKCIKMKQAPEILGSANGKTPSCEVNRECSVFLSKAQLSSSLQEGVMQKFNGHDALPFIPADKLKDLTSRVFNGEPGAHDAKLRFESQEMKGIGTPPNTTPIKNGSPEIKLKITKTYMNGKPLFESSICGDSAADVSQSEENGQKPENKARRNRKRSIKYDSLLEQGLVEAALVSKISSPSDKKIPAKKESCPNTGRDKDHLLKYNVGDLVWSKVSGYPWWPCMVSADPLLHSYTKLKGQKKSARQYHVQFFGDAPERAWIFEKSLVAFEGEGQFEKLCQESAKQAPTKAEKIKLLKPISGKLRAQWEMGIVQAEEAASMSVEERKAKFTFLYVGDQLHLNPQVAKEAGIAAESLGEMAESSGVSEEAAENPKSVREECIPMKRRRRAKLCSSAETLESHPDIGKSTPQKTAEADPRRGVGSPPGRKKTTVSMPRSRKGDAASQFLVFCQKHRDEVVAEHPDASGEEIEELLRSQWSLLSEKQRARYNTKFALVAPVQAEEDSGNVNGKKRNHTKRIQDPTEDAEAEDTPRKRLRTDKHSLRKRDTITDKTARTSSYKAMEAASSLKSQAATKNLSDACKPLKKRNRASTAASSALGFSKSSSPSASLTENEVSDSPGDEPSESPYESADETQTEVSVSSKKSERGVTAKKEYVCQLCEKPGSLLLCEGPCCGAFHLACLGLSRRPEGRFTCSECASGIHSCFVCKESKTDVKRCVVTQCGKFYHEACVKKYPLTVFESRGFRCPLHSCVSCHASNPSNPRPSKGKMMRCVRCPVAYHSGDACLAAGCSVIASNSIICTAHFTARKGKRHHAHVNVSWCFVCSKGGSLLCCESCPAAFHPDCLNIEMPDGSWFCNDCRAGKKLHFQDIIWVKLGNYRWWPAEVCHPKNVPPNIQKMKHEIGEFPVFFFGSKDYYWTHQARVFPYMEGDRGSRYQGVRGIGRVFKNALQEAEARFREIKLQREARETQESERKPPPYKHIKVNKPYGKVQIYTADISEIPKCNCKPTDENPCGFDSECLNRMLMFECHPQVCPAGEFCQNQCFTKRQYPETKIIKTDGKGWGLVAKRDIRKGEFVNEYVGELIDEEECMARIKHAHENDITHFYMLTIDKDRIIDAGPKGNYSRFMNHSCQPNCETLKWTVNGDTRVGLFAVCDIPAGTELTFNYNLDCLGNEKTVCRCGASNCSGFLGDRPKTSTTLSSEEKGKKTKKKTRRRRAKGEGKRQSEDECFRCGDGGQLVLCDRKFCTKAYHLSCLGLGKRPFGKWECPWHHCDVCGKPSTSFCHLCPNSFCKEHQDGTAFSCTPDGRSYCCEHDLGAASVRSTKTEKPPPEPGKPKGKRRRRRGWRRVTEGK

Nonstructural protein 1 = Nonstructural protein 1 (Influenza A virus, UniProt Q194T2); format: functional, Influenza A virus (A/California/07/2009(H1N1))
Mucolipin-3 = biological target: T4, Mucolipin-3 (Homo sapiens, UniProt Q8TDD5); experiment: Fluorescence counterscreen assay for […] agonists: dose response cell-based high-throughput screening assay to identify agonists of the transient receptor potential channel ML3 (TRPML3). [Related pubchem assays: 1424, 1448 ]; format: functional
T4 sequence (Q8TDD5 whole entry): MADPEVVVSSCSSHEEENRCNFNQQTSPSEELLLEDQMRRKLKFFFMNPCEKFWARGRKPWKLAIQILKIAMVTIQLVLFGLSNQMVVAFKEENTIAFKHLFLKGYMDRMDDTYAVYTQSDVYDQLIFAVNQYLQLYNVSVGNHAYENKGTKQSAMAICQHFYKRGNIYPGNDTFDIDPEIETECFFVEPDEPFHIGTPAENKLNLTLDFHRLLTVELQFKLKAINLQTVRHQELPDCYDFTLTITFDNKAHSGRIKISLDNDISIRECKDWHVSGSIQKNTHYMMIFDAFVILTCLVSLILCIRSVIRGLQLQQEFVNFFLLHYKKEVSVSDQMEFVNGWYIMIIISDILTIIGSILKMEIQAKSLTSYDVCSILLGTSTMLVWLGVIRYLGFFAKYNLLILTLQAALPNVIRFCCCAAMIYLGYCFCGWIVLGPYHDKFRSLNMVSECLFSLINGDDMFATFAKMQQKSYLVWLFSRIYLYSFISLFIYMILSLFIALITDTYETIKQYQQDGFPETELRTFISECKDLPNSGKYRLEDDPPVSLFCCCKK

Ion channel NompC = Ion channel NompC (Danio rerio, UniProt Q7T1G6); experiment: Dose response cell-based high-throughput screening assay for agonists of the transient receptor potential channel N1 (TRPN1). [Related pubchem assays (depositor defined):AID1424, AID1448]; format: functional
cells [7] = format: functional, cell-based
cells [8] = format: functional, cell-based; remark: listed apart in the source
[9] = biological target: Alkaline phosphatase, placental type (Homo sapiens, UniProt P05187); experiment: PLAP enzyme inhibitors, confirmation, biochemical, luminescence (AID 1512); format: functional
[10] = biological target: T1, Alkaline phosphatase, tissue-nonspecific isozyme; experiment: human TNAP enzyme inhibitors, SAR follow-up, biochemical, luminescent, dose response (AID 1056)

Sequence of Intestinal-type alkaline phosphatase (Homo sapiens, UniProt P09923) (P09923 whole entry): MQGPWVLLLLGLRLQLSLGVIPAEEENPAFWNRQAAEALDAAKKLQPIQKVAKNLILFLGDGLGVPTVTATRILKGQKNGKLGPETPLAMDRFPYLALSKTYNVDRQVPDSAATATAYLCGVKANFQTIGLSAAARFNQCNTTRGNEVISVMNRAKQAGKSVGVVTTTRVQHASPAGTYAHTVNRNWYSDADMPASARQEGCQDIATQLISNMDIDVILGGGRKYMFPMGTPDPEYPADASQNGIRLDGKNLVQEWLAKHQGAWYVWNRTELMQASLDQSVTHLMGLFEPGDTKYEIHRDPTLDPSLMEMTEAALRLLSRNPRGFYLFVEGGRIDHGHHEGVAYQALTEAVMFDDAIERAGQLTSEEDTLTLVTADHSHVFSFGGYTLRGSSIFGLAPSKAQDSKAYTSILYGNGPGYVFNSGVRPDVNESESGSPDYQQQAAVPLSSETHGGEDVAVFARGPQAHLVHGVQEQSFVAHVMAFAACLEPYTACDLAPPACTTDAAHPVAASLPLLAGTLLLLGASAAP
T2 sequence (P24822 whole entry): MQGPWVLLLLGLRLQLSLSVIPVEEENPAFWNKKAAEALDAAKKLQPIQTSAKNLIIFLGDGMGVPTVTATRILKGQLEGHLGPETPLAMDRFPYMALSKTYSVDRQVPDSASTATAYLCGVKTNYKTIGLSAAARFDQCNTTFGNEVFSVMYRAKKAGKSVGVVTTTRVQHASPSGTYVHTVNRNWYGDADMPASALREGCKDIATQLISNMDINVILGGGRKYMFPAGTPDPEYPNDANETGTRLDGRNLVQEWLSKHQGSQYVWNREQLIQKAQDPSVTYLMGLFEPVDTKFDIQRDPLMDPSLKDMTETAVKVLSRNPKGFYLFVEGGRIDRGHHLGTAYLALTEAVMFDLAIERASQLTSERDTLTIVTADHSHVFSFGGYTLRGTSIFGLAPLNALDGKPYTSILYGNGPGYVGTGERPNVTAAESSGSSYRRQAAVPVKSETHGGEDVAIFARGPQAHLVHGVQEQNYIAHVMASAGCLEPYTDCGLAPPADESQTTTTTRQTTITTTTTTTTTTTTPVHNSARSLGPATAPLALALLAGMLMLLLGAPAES
Sequence of Alkaline phosphatase, placental type (P05187 whole entry): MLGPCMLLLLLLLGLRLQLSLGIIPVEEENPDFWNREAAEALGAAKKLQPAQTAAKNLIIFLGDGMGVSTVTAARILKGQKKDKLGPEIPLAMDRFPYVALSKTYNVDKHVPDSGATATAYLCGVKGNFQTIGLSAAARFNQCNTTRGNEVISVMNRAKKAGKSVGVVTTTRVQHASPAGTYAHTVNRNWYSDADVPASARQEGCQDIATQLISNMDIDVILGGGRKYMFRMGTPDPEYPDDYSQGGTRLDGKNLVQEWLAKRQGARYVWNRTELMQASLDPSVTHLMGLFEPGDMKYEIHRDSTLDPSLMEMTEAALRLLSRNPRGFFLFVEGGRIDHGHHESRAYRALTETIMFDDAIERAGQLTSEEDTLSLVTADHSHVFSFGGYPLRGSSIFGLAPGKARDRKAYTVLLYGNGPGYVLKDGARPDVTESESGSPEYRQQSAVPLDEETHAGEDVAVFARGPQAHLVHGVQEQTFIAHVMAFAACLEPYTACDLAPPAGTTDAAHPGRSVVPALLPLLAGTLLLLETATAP
Sequence of Nonstructural protein 1 (Q194T2 whole entry): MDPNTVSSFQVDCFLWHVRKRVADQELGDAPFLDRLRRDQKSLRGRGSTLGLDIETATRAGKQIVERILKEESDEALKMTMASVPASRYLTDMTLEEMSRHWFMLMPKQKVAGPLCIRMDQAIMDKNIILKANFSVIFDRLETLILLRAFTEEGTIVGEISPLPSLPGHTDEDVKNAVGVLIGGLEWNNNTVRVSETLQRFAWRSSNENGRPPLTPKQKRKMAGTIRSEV
Sequence of Ion channel NompC (Q7T1G6 whole entry): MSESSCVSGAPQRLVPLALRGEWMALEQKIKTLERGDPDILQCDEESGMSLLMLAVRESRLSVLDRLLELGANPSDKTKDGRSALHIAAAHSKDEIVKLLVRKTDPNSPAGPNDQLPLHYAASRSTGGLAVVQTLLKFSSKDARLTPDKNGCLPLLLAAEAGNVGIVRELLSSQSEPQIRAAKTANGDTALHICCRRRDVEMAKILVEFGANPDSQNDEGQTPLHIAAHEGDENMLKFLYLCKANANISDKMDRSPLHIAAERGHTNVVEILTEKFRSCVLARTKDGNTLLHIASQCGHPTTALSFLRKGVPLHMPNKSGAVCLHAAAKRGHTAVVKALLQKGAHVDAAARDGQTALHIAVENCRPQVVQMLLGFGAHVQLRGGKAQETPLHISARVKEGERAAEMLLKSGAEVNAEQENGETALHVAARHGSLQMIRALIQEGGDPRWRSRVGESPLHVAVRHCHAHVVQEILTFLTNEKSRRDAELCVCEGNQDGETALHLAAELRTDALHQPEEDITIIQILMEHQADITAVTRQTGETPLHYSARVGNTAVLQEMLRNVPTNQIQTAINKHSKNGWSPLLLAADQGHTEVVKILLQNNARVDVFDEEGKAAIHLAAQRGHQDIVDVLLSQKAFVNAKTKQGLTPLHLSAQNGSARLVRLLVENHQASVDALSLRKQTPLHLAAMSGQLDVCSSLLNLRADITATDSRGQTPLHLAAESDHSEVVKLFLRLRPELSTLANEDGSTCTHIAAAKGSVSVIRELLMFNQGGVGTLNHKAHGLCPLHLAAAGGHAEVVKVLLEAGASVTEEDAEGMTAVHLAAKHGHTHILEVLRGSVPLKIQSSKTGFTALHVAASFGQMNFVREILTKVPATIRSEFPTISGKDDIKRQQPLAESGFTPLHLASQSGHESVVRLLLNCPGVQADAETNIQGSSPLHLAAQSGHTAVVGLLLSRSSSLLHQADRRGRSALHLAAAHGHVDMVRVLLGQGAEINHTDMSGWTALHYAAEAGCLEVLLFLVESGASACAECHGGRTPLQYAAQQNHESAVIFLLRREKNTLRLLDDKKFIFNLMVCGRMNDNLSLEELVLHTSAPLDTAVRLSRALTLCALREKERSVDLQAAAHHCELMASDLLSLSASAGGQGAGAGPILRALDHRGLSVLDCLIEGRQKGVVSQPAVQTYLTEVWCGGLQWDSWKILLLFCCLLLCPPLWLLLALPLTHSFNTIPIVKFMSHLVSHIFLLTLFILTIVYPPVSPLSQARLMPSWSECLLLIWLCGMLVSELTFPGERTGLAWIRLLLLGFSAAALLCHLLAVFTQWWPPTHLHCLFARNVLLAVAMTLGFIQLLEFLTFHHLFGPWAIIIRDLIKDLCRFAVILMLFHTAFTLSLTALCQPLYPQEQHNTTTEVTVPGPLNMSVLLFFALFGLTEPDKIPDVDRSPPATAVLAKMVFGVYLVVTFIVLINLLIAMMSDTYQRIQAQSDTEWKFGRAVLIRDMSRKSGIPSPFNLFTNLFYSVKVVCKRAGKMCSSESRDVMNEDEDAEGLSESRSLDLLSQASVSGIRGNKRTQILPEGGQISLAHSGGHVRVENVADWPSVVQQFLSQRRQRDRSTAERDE
Sequence of Large T antigen (P03070 whole entry): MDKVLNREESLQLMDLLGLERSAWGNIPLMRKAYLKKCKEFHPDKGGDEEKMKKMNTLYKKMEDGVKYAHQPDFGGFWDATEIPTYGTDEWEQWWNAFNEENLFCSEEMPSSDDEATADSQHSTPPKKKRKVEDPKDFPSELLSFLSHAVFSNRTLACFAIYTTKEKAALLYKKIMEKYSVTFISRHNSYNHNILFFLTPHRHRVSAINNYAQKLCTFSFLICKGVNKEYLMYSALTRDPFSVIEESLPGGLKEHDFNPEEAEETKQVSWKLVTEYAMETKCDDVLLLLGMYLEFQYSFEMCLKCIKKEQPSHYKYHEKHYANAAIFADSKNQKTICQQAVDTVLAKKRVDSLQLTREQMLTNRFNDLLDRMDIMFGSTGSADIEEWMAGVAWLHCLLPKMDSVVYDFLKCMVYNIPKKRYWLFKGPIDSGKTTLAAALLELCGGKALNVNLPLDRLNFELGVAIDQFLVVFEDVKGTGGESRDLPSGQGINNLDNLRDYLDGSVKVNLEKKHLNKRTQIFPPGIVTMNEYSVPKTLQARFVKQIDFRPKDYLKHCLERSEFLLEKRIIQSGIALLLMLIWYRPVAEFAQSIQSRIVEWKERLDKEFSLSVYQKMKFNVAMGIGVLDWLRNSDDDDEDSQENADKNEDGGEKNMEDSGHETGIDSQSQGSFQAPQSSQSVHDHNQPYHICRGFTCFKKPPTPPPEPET

For `COc1cccc(C(C)NC(=O)Nc2cccc(C(F)(F)F)c2)c1` (stereo not given), the IC50 [1] was > 100 µM (inactive), the EC50 [2] was > 100 µM (inactive) and the IC50 [3] was 3.21 µM (active).

With `O=C(CSc1nc2ccccc2o1)N/N=C/c1ccc(O)c(O)c1` the EC50 [4] was 69.9 µM (active), the IC50 (Large T antigen) was 6.69 µM (active) and the EC50 [2] was 63 µM (active). For the same compound, the EC50 [5] was 61.7 µM (active) and the AC50 [6] was 0.742 µM (active).

For `O=C(N/N=C/c1cc(Cl)cc(Cl)c1O)c1ccncc1`, the IC50 (Nonstructural protein 1) was 5.57 µM (active), the EC50 (Mucolipin-3) was 14.2 µM (not active) and the EC50 (Ion channel NompC) was 6.49 µM (active). For the same compound, the EC50 (cells [7]) was 259 µM (active) and the EC50 (cells [8]) was > 350 µM (not active).

With `Cc1cc(C)nc(SCC(=O)c2ccc(O)cc2)n1` the IC50 [9] was > 100 µM (inactive) and the IC50 [10] was > 100 µM (inactive).
